The values below come from patent US10955415B2, “CD247 as a biomarker for assessing the effect of chemotherapeutic and biological drugs” (YISSUM RESEARCH DEVELOPMENT COMPANY OF THE HEBREW …, priority 2011, dated 2021).

One assay has as its system CD4+Foxp3+ Treg cells. Details: species or system mice. Conditions: mouse, in vivo.
In another assay the test system is Thy1.2+ (CD90+) T-cells. Kind of assay: T-cell proliferation of CFSE-labeled splenocytes activated with anti-CD3 and anti-CD28. Type of assay: in vivo. Conditions: splenocytes of BCG-inflamed treated mice, anti-CD3/anti-CD28 activation. As to the method:
FIG. 2C. Splenocytes from untreated, inflamed, and inflamed-treated i.v. with irinotecan were labeled with CFSE and activated with anti-CD3 and anti-CD28 antibodies or left non-activated. The proliferative response was assessed by monitoring cell divisions of gated CFSE-labeled Thy1.2+ (CD90+) cells. Data was calculated by percent of proliferating cells compared to steady state of non-activated of each group.
FIG. 18A-18E. Splenocytes and PBLs from mice untreated (naïve), inflamed, or inflamed and treated with 5-FU or CPT-11 were fixed, permeabilized, and double stained for the expression of CD247 (ζ-chain) (FIGS. 18A, 18B) and CD3ε-chain (FIGS. 18D, 18E), as shown by mean fluorescence intensity (MFI), measured in gated CD3^+ cells. FIG. 18C: Splenocytes from mice, naïve, inflamed and inflamed treated with 5-FU or CPT-11, were labeled with CFSE and activated with anti-CD3 and anti-CD28 antibodies or left non-activated. The proliferative response was assessed by monitoring cell divisions of gated CFSE-labeled Thy1.2+ (CD90+) T-cells. The percent of proliferating cells was calculated and compared to steady state levels of non-activated cells per each group. Data from three independent experiments is presented (n=3). Statistical analyses using t test indicated significant differences at 95%. Means and SEM are shown. *, P<0.05; **, P<0.01. FIG. 18F-18I. For the detection of myeloid differentiation state, splenocytes from each group were stained for (18F) DC11b^+CD11c^+ cells (representing DCs), (18G) DC11b^+F4/80^+ cells (representing monocytes), (18H) CD11c^+MHCII^+CD80^+ cells (representing fully differentiated […] as antigen presenting cells) and (18I) F4/80^+MHCII^+CD80^+ cells (representing fully differentiated […] as antigen presenting cells). Data from three independent experiments (n=4) is presented. Statistical analyses using t test indicated significant differences at 95%. Means and SEM are shown. *, P<0.05; **, P<0.01; ***, P<0.001. Abbreviations: Nor. (normal), Rel. (relative), Inf. (inflamed), ce. Pro. (cell proliferation)

The next assay deals with S100A8/9. The experiment in a line: S100A8/9 mRNA and S100A9 immunoblot in purified MDSCs and total spleen. Conditions: purified MDSCs and total splenic population, BCG-inflamed mice; for S100A9 protein levels: immunoblot. Type of assay: in vivo. An excerpt: FIG. 17A. Purified MDSCs from spleens (n=4); and FIG. 17B. A total spleen population was used to analyze mRNA levels of S100A8/9 (left), and to perform immunoblotting of S100A9 (right) following the course of chronic inflammation alone, chronically inflamed mice treated with 5-FU or CPT11 (n=4), α-Tubulin levels served as a control.
Analyses used either the splenocyte population or peripheral blood as mentioned above. Cells (5×10^7/ml, or 1×10^6/ml) were lysed with Tris-NaCl buffer containing 0.5% Triton X-100 and protease inhibitors for 30 min on ice. Proteins were resolved on 12% SDS-PAGE and subjected to immunoblotting analysis using the following specific antibodies: anti-CD247, antiCD3ε antibodies, anti-S100A9, anti-S100A8, anti-iNOS, anti-ARG1, and anti-αTubulin antibodies. Specific antibodies were detected by incubation with protein A (Amersham), anti-rat or anti-goat antibodies conjugated to horseradish peroxidase (Jackson Immunoresearch), followed by enhanced chemiluminescence and exposure to Kodak X-ray films.
Total RNA was recovered from splenocytes or isolated MDSCs using Tri-Reagent (Sigma) and was subjected to reverse transcription with m-MLV-RT (Invitrogen) and random primers (IDT). Quantitative mRNA expression was analyzed by real-time PCR (ABI 7900), with SYBR green (Invitrogen). RT-PCR primers were designed to recognize an exon-exon boundary in all transcripts.
On the technique in general: Immunoblotting shows a protein as a band on a membrane.

Another assay deals with cleaved caspase-3. Kind of assay: Cleaved caspase-3 in splenic MDSCs (flow cytometry). Type of assay: in vivo. The following applies: BCG-inflamed mice. An excerpt:
FIG. 17F. […] Means and SEM are shown. *, P<0.05; **, P<0.01. Abbreviations: Inf. (inflamed), Tot. sp. (total spleen), sp (spleen), g. (gated), Norm. (normal).
On the technique in general: Flow cytometry measures light scatter and fluorescence of single cells or particles in a stream.

The test system of assay [1] is MDSCs. Kind of assay: NO and ROS production gated on MDSCs, CRC mouse model. It counts as in vivo. The following applies: CRC-bearing mice, splenocytes. As to the method:
Splenocytes isolated from normal mice, CRC mice or CRC mice treated with 5-FU alone or in a combination with CPT11 (n=5) were analyzed for nitric oxide (NO, FIG. 23A) and reactive oxygen species (ROS, FIG. 23B) production, both by flow cytometry analysis gaiting on the MDSCs (Gr1+CD11b+) population. Histograms represent production levels, as shown by mean fluorescence intensity (MFI). Data from three independent experiments (n=3) are presented. Statistical analyses using t test indicate significant differences at 95%. Means and SEM are shown. *, P<0.05; **, P<0.01. Abbreviations: Norm. (normal), g. (gated).

For assay [2], the system named is MDSCs. Kind of assay: NO production of MDSCs in colon epithel and lamina propria, CRC mouse model. It counts as in vivo. Conditions: CRC-bearing mice, gated on MDSCs.
In a further assay the test system is colorectal cancer (CRC). Kind of assay: Survival, colon structure and tumor loads of CRC-bearing mice. Type of assay: in vivo.

Procedure for colorectal cancer (CRC): Survival of mice CRC, CRC-5-FU or CRC-5FU/CPT-11 treatment is shown as Kaplan-Meyer curve (n=20). Time points of AOM injections and the period of DSS addition are represented by gray arrows and lines, respectively. Start point of chemotherapy treatment and continual boosts are shown as black arrows.
The mouse model for CRC was established by two repeated injections of azoxymethane (AOM) (Sigma) in intervals of two weeks followed by two weekly administrations of DSS (Sigma) that was added to drinking water every two weeks for duration of about seven days. In order to test the influence of chemotherapeutic drugs on the induced-chronic inflammatory environment in a CRC model, after the second DSS treatment mice were randomized into three groups (n=10 mice) as follows: CRC control group, CRC and 5-FU i.p inoculated group and CRC and CPT-11 i.p inoculated group. Mice were sacrificed at week +11, three weeks after the second DSS treatment.
It important to note that in each of the experiments performed (presented in FIG. 21 and FIG. 22), pathological macroscopic and microscopic tests have been performed on the structure of the colon and counts were made of the tumor loads.

Take `O=c1[nH]cc(F)c(=O)[nH]1` [5-FU, 5-Fluorouracil]: the “levels of Treg cells (CD4+Foxp3+) in spleen” value in the assay with CD4+Foxp3+ Treg cells is recorded as “remained unchanged”. Besides, in the assay on Thy1.2+ (CD90+) T-cells, the “proliferative capacity of T cells” value is on record as “tendency of a functional recovery”. In the assay with S100A8/9, the “mRNA levels of S100A8/9” value is on record as “significant decrease” and the S100A9 protein levels entry is reported as “decreased amounts”. In the assay on cleaved caspase-3, the “cleaved caspase-3 expression in spleen-derived MDSCs” value is recorded as “significant increase”. Moreover, in the assay with MDSCs [1], the “NO and ROS production (MDSC suppressive activity)” value is reported as “decreased the suppressive activity”. The “NO production in epithel and lamina propria” value in the assay on MDSCs [2] is “reduced”. Also, the “survival of CRC mice (Kaplan-Meyer)” value in the assay on colorectal cancer (CRC) is “increased survival”. In addition, the “curable effects on colon structure and tumor loads” value with colorectal cancer (CRC) (macroscopic and microscopic pathology) was “observed”.
In the case of `CCc1c2c(nc3ccc(OC(=O)N4CCC(N5CCCCC5)CC4)cc13)-c1cc3c(c(=O)n1C2)COC(=O)[C@]3(O)CC` [Irinotecan], the “levels of Treg cells (CD4+Foxp3+) in spleen” value in the assay on CD4+Foxp3+ Treg cells is on record as “remained unchanged”. For the same compound, the “proliferative capacity of T cells” value in the assay with Thy1.2+ (CD90+) T-cells (listed as CPT11) was “impaired proliferative capacity”. For the same compound, in the assay with Thy1.2+ (CD90+) T-cells (listed as CPT-11), the “proliferative capacity of T cells” value is listed as “significantly diminished”. In the assay with S100A8/9, the “mRNA levels of S100A8/9” value is “no significant changes” and the S100A9 protein levels result is listed as “remained high”. In addition, the “survival of CRC mice (Kaplan-Meyer)” value in the assay on colorectal cancer (CRC) is “reduced survival rate”.
